Source: US20080248511A1, “METHODS TO QUENCH LIGHT FROM OPTICAL REACTIONS” (priority 2007, published 2008)

Columns and labels:
[1] = target: T1, Renilla luciferase (Renilla reniformis, UniProt P27652); assay: Quench of Renilla luciferase luminescence in lysed CHO cells expressing Renilla luciferase (Example 7); type: cell-based; conditions: for Inhibition (Initial/Addition): 10 μM #3077 and/or 0.04% #1424, 0.5% Tergitol NP-9; for Renilla luciferase luminescence after inhibitor addition: 3 minutes after lysis solution with 0.5% Tergitol NP-9 and 10 μM #3077 and/or 0.04% #1424; for Initial Renilla luciferase luminescence: CHO cells, EnduRen, before inhibitor addition
T1 sequence (P27652 1-311): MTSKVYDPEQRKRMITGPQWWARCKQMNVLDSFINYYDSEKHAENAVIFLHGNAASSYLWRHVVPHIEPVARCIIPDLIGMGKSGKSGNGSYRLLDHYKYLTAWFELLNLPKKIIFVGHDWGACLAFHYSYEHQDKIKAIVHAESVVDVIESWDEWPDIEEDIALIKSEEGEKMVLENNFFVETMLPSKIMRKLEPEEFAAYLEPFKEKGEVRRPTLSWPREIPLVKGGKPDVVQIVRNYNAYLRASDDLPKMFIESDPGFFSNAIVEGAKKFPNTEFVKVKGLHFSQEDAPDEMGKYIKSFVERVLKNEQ
Procedure: Renilla luciferase was expressed under the control of the CMV promoter in Chinese Hamster Ovary (CHO) cells. The cells were grown in DMEM+10% FBS (Invitrogen). The cells (20,000) were plated in 96-well plates and cultured in the presence of the EnduRen™ Live Cell Substrate (Promega) in order to generate continuous Renilla luciferase-mediated luminescence. After 12 hours of culturing, Renilla luciferase-mediated luminescence was measured. After measurement, the cells were lysed with an equal volume of a solution containing 0.5% Tergitol NP-9 and either 10 μM compound #3077 (non-detergent inhibitor), 0.04% 4-((dodecyldimethylammonium)methyl)benzoate (#1424) (detergent inhibitor), or a combination of the two. The cells were exposed for 3 minutes and Renilla luciferase-mediated luminescence was measured.

[2] = target: T1, Renilla luciferase; assay: Detergent screen with Tergitol NP-9, Renilla luciferase (Example 3); type: biochemical; conditions: 0.5% Tergitol NP-9; for Retained Renilla Luminescence (%): 0.06% quencher in reagent solution; for Selectivity Value: retained firefly / retained Renilla, 0.06% quencher
Procedure: (§1) Unless otherwise specified, materials were obtained from Sigma-Aldrich.
(§2) The firefly luciferase and Renilla luciferase enzymes were diluted as follows. Firefly luciferase was diluted to 14 ng/ml in Delbecco's Minimal Essential (DMEM) medium (Gibco/Invitrogen) containing 0.1% Prionex®. Renilla luciferase was diluted to 10 ng/ml in DMEM medium containing 0.1% Prionex®.
(§3) The luciferase reactions were initiated by adding 50 μl of the firefly luciferase or Renilla luciferase enzyme solution to 50 μl of reagent solution. The reactions were performed as described above. The retained firefly luciferase and Renilla luciferase luminescence as well as the selectivity values for each quencher were calculated (Table 3). The values listed are based on 0.06% quencher in the reagent solution.

[3] = target: T1, Renilla luciferase; assay: Versions of firefly luciferase reagent, firefly/Renilla luciferase samples (Example 10); type: biochemical; conditions: firefly/Renilla sample
Procedure: (§4) Eight different versions of firefly luciferase reagent were made. The versions contained one of two luciferin substrates: luciferin or 5′ fluoroluciferin. The versions also differed in whether they contained Coenzyme A and/or DTT (a thiol). All versions of the reagent contained 250 mM HEPES pH 7.4, 16 mM MgSO4, 2 mM ATP and 2 mM luciferin or 5′fluoroluciferin. To create the various versions of the firefly luciferase reagent, 20 mM DTT, 2 mM Coenzyme A, 20 mM DTT and 2 mM Coenzyme A or neither DTT or Coenzyme A was added. In addition, sub-versions of the reagent were created which contained 0.3 mM of the indole (#3077) Renilla luciferase quencher, 0.04% (w:v) of the detergent (4-((dodecyldimethylammonium)methyl)benzoate) Renilla luciferase quencher, both quenchers or neither quencher. In all, a total of 32 versions of firefly luciferase reagent were created (Table 10).
(§5) To mimic the effect of measuring Renilla luciferase luminescence followed by the measurement of firefly luciferase luminescence in a single sample, side-by-side samples (each in triplicate) were used for each version of reagent. The first triplicate of samples comprised one of the versions of firefly luciferase reagent and a firefly luciferase solution (added 1:1) containing F12 medium (Invitrogen), 1 mg/ml BSA (ThermoFisher) and 14 ng/ml QuantiLum® luciferase (Promega). The second triplicate of samples comprised the same version of firefly luciferase reagent used in the first trio and a firefly/Renilla luciferase solution (added 1:1) containing F12 medium, 1 mg/ml BSA, 14 ng/ml QuantiLum® luciferase and 140 ng/ml Renilla luciferase. Firefly and Renilla luciferase luminescence was measured as previously described in both sets of samples at the same time. […] The firefly luciferase measurements were obtained from the samples only containing the firefly luciferase while the Renilla luciferase measurements were obtained from the samples containing both firefly and Renilla luciferases.

[4] = target: T2, firefly luciferase (Photinus pyralis, UniProt P08659); assay: Versions of firefly luciferase reagent, firefly luciferase only samples (Example 10); type: biochemical
T2 sequence (P08659 whole entry): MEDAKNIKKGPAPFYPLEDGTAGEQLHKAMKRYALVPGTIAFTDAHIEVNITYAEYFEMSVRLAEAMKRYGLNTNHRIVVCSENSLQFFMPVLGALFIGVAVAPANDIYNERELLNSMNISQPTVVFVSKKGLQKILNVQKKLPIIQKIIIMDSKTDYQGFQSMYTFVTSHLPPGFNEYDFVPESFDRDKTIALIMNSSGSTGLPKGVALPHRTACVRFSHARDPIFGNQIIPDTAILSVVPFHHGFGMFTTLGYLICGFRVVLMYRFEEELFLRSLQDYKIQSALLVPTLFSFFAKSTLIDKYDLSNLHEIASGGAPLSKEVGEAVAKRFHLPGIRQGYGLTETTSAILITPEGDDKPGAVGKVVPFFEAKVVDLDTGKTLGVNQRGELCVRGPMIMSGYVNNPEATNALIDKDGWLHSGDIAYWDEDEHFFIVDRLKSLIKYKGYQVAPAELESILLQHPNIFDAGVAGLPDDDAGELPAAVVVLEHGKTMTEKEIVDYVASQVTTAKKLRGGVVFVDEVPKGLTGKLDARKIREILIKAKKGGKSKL
Procedure: as §4, §5

[5] = target: T2, firefly luciferase; assay: Detergent screen with Tergitol NP-9, firefly luciferase (Example 3); type: biochemical; conditions: 0.06% quencher in reagent solution; 0.5% Tergitol NP-9
Procedure: as §1, §2, §3

[6] = target: T1, Renilla luciferase; assay: Quench of Renilla luciferase luminescence by competitive inhibitors in detergent-containing quenching reagent (Example 1); type: biochemical
Procedure: Renilla luciferase (1×10^−9 M in Renilla Luciferase Lysis Buffer (Promega))+0.1% Prionex (PentaPharma) was added to Renilla Luciferase Assay Buffer (Promega) containing 3 μM coelenterazine-h. The initial Renilla luciferase-mediated luminescence was measured for 10 seconds using a Turner 20/20 n (Turner BioSystems). A quenching reagent containing 50 mM HEPES pH 7.4, 16 mM MgSO4, 1 mM CDTA, 0.5% Tergitol NP-9, 0.015% dodecyltrimethylammonium bromide, 10 mM thiourea, 0.05% Mazu-DF-204 (PGP), and 1.5 mM ATP (Pharmacia) was added to the reactions to reduce the Renilla luciferase-mediated luciferase luminescence. […] After the addition of the inhibitors, a second Renilla luciferase-mediated luminescence reading was taken. Unless otherwise specified, materials were obtained from Sigma-Aldrich.
The quenching agents described herein are effective in the presence of detergents used for cell lysis as well as other quenching agents.

[7] = target: T1, Renilla luciferase; assay: Non-detergent compound screen, Renilla luciferase (Example 6); type: biochemical
[8] = target: T2, firefly luciferase; assay: Non-detergent compound screen, firefly luciferase (Example 6); type: biochemical; conditions: 0.5% Tergitol NP-9, 0.03% BDDABr, read-out: Retained Firefly Luciferase Value (%)
[9] = Luciferin, no thiol, 0.3 mM #3077 and/or 0.04% #1424
[10] = Quench Reagent + 10 μM inhibitor
[11] = Quench Reagent + 100 μM inhibitor

For `CCCCCCCCCCCC[N+](C)(C)Cc1ccc(C(=O)[O-])cc1` [Compound 1424, 4-((Dodecyldimethylammonium)methyl)benzoate], the “Inhibition (Initial/Addition)” value [1] was 52, the “Renilla luciferase luminescence after inhibitor addition” value [1] was 19963 and the “Initial Renilla luciferase luminescence” value [1] was 1037560. The “Retained Renilla Luminescence (%)” value [2] was 20.0%, the “Selectivity Value” [2] was 6.4 and the Renilla luminescence ([3]; 5′-fluoroluciferin, CoA) was 2,891,880. For the same molecule, the Renilla luminescence ([3]; 5′-fluoroluciferin, DTT + CoA) was 2,833,435, the Renilla luminescence ([3]; 5′-fluoroluciferin, DTT) was 1,142,573 and the Renilla luminescence ([3]; 5′-fluoroluciferin, no thiol) was 1,138,027. For the same molecule, the Renilla luminescence ([3]; Luciferin, CoA) was 2,240,063, the Renilla luminescence ([3]; Luciferin, DTT + CoA) was 2,265,505 and the Renilla luminescence ([3]; Luciferin, DTT) was 699,059. The Renilla luminescence ([3]; Luciferin, no thiol) was 660,916, the Firefly luminescence ([4]; 5′-fluoroluciferin, CoA) was 2,095,790 and the Firefly luminescence ([4]; 5′-fluoroluciferin, DTT) was 512,625. For the same molecule, the Firefly luminescence ([4]; 5′-fluoroluciferin, DTT + CoA) was 2,376,253, the Firefly luminescence ([4]; 5′-fluoroluciferin, no thiol) was 268,289 and the Firefly luminescence ([4]; Luciferin, CoA) was 1,621,883. The Firefly luminescence ([4]; Luciferin, DTT) was 291,173, the Firefly luminescence ([4]; Luciferin, DTT + CoA) was 1,881,453 and the Firefly luminescence [4, 9] was 144,239. For the same molecule, the “Retained Firefly Luminescence (%)” value [5] was 127.0%.

In the case of `CCCCCCCCCCCC[N+](C)(C)Cc1ccccc1-c1ccccc1.[Br-]` [N-(biphenyl-2-ylmethyl)-NN-dimethyldodecyan-1-ammonium bromide], the “Retained Renilla Luminescence (%)” value [2] is reported as 0.8%, the “Selectivity Value” [2] is reported as 221.3 and the “Retained Firefly Luminescence (%)” value [5] is reported as 177.0%.

In the case of methylether coelenterazine-h, the “Reduction in Renilla luciferase luminescence after 2nd measurement” value (from here on “Reduction”) [6, 10] is reported as 15-fold and the “Reduction” value [6, 11] is reported as 30-fold.

In the case of `O=C(Cc1ccc(O)cc1)Nc1ncc(-c2ccc(O)cc2)nc1Cc1ccccc1` [coelenteramide], the “Reduction” value [6, 10] is reported as 18-fold, the “Reduction” value [6, 11] is reported as 21-fold and the Ki ([6]; in the presence of lysing detergent and quenching reagent) is reported as > 100 µM.

For `CCCCCCCCCCCCOCC[N+](C)(C)Cc1ccccc1.[Cl-]` [Benzyldimethyl(2-dodecyloxethyl)ammonium chloride], the “Retained Renilla Luminescence (%)” value [2] was 20.5%, the “Selectivity Value” [2] was 8.5 and the “Retained Firefly Luminescence (%)” value [5] was 174.0%.

In the case of `CCCC[N+](C)(C)CCc1c[nH]c2ccc(/C=C/C(=O)NCc3ccc(OC)cc3)cc12.[I-]` [Compound 3077, (E)-N-(2-(5-(3-(4-methoxybenzylamino)-3-oxoprop-1-enyl)-1H-indol-3-yl)ethyl)-N,N-dimethylbutan-1-aminium iodide], the “Selectivity Value” ([7]; inhibitor 10 μM) is reported as 20, the remaining activity at 10 µM ([7]; inhibitor 10 μM, 0.5% Tergitol NP-9, 0.03% BDDABr, read-out: Retained Renilla Luciferase Value (%)) is reported as 5% and the “Selectivity Value” ([7]; inhibitor 100 μM) is reported as 98. The remaining activity at 100 µM ([7]; inhibitor 100 μM, 0.5% Tergitol NP-9, 0.03% BDDABr, read-out: Retained Renilla Luciferase Value (%)) was 1%, the “Selectivity Value” ([7]; inhibitor 1000 μM) was 980 and the remaining activity at 1000 µM ([7]; inhibitor 1000 μM, 0.5% Tergitol NP-9, 0.03% BDDABr, read-out: Retained Renilla Luciferase Value (%)) was 0.1%. It also gave a remaining activity at 10 µM ([8]; inhibitor 10 μM) of 100%, a remaining activity at 100 µM ([8]; inhibitor 100 μM) of 98% and a remaining activity at 1000 µM ([8]; inhibitor 1000 μM) of 98%. For the same molecule, the “Inhibition (Initial/Addition)” value [1] was 608, the “effectiveness at quenching Renilla luciferase-mediated luminescence relative to #1424 alone” value ([1]; 10 μM #3077 vs 0.04% #1424) was “about 12 fold” and the “Renilla luciferase luminescence after inhibitor addition” value [1] was 1402. The “Initial Renilla luciferase luminescence” value [1] was 852596, the Renilla luminescence ([3]; 5′-fluoroluciferin, CoA) was 2,360,350 and the Renilla luminescence ([3]; 5′-fluoroluciferin, DTT + CoA) was 2,653,610. For the same molecule, the Renilla luminescence ([3]; 5′-fluoroluciferin, DTT) was 514,808, the Renilla luminescence ([3]; 5′-fluoroluciferin, no thiol) was 280,188 and the Renilla luminescence ([3]; Luciferin, CoA) was 1,572,983. For the same molecule, the Renilla luminescence ([3]; Luciferin, DTT + CoA) was 1,770,665, the Renilla luminescence ([3]; Luciferin, DTT) was 260,392 and the Renilla luminescence ([3]; Luciferin, no thiol) was 136,759. For the same molecule, the Firefly luminescence ([4]; 5′-fluoroluciferin, CoA) was 2,367,927, the Firefly luminescence ([4]; 5′-fluoroluciferin, DTT) was 499,900 and the Firefly luminescence ([4]; 5′-fluoroluciferin, DTT + CoA) was 2,677,367. The Firefly luminescence ([4]; 5′-fluoroluciferin, no thiol) was 239,138, the Firefly luminescence ([4]; Luciferin, CoA) was 1,502,143 and the Firefly luminescence ([4]; Luciferin, DTT) was 252,225. The Firefly luminescence ([4]; Luciferin, DTT + CoA) was 1,821,797 and the Firefly luminescence [4, 9] was 115,749.

With methylether coelenterazine-hh the “Reduction” value [6, 10] was 21-fold and the “Reduction” value [6, 11] was 34-fold.

In the case of `CCCCCC[N+](C)(C)Cc1ccccc1.[Br-]` [N-benzyl-N,N-dimethylhexan-1-aminium bromide], the “Retained Renilla Luminescence (%)” value [2] is reported as 54%, the “Selectivity Value” [2] is reported as 1.9 and the “Retained Firefly Luminescence (%)” value [5] is reported as 103%.

`CCCCCCCCCCCC[N+](C)(C)Cc1ccc2c(c1)CCCC2.[Cl-]` [Dimethyldodecyl(5,6,7,8-tetrahydro-2-naphthylmethyl)ammonium chloride] was tested, and the “Retained Renilla Luminescence (%)” value [2] was 118.0%, the “Selectivity Value” [2] was 0.9 and the “Retained Firefly Luminescence (%)” value [5] was 112.0%.

In the case of “N-benzyl-N,N-dimethylloctan-1-aminium bromide”, the “Retained Renilla Luminescence (%)” value [2] is reported as 13%, the “Selectivity Value” [2] is reported as 10.3 and the “Retained Firefly Luminescence (%)” value [5] is reported as 134%.
